Patent US4894377A, “β-carbolines and their use as medicinal agents” (Schering Aktiengesellschaft, priority 1983, dated 1990)
In brackets after ≈: the same amount, converted by molar mass.

Key:
[1] = tested on: convulsions induced by pentylenetetrazole (Pentazol); assay: protection from convulsions and death induced by pentylenetetrazole (Pentazol); assay type: in vivo; conditions: Mus musculus, ip; protects 50% of mice from convulsions and death; test compound intraperitoneal, 15-30 minutes before Pentazol
Experimental: (§1) The compounds of this invention show, in a pharmacological test, anxiolytic, antiagressive, and anticonvulsive activities. Two testing systems were employed to examine the anticonvulsive effect. The elimination of convulsions induced, on the one hand, by pentylenetetrazole (Pentazol) and, on the other hand, by 6,7-dimethoxy-4-ethyl-β-carboline-3-carboxylic acid methyl ester (DMCM) was examined. Pentazol and DMCM, respectively, are administered 15-30 minutes after intraperitoneal administration of the test compound in an amount of 15 mg/kg as an aqueous solution (pH 7) intraperitoneally and, respectively, in an amount of 150 mg/kg as a hydrochloric acid solution (pH 2-3) subcutaneously. These quantities induce clonic and tonic convulsions leading to death in untreated animals.
(§2) The ED50 values indicated in the table were determined according to the method by Litchfield and Wilcoxon (1949) as the amount of antagonistically active compound required to protect 50% of the animals from convulsions and death.

[2] = tested on: convulsions induced by 6,7-dimethoxy-4-ethyl-β-carboline-3-carboxylic acid methyl ester (DMCM); assay: protection from convulsions and death induced by DMCM; assay type: in vivo; conditions: Mus musculus, ip; protects 50% of mice from convulsions and death; test compound intraperitoneal, 15-30 minutes before DMCM
Experimental: as §1, §2

benzodiazepine receptors = assay: displacement of specific binding of 3H flunitrazepam in vitro (rat cerebral membrane suspension); conditions: 50% displacement of specific binding of 3H flunitrazepam (1.0 nM, 0° C.), rat cerebrum
[3] = tested on: clonic convulsions at 111 dB; assay: audiogenic seizure test; assay type: in vivo; conditions: Mus musculus, ip, 0.5 h; dose at which 40% of mice show no convulsions at 111 dB (14 kHz); DBA/2 mice, intraperitoneal, 30 minutes prior
Experimental: The compounds of this invention also show a convulsion-relieving and/or convulsion-eliminating effect in the audiogenic seizure test. For this purpose, 18-21 day old male mice weighing 8-12 g (DBA/2 mice) receive intraperitoneally the compound to be tested as an ultrasound microsuspension in water/"Cremofor" EL (95:5) 30 minutes prior to testing. The animals are then exposed, in a soundproof wooden box (25×22×15 cm), to a sinusoidal sound of 14 kHz at 111 dB. The sound is generated immediately after transferring the animal into the box. Occurrence of clonic convulsions is recorded for 30 seconds. The ED50 value in the table indicates the dose at which 40% of the mice show no convulsions at 111 dB (80% of the control mice show convulsions at 111 dB).

In the case of `CCOC(=O)c1ncc2[nH]c3cccc(OCc4ccc(Cl)c(Cl)c4)c3c2c1COC` [3,4-dichloro, 5-(3,4-dichlorobenzyloxy)-4-methoxymethyl-β-carboline-3-carboxylic acid ethyl ester], the ED50 [1] is reported as 6 mg/kg, the ED50 [2] is reported as 2.2 mg/kg and the “IC50 (in vitro)” value (benzodiazepine receptors) is reported as 2.1 ng/mL (≈ 4.57 nM).
For `CCOC(=O)c1ncc2[nH]c3cccc(OCc4ccc([N+](=O)[O-])cc4)c3c2c1COC` [Substituent 4-nitro, 5-(4-nitrobenzyloxy)-4-methoxymethyl-β-carboline-3-carboxylic acid ethyl ester], the ED50 [1] was greater than 50 mg/kg and the “IC50 (in vitro)” value (benzodiazepine receptors) was 0.2 ng/mL (≈ 0.459 nM).
In the case of `CCOC(=O)c1ncc2[nH]c3cccc(OCc4cccc(OC)c4)c3c2c1COC` [Substituent 3-methoxy, 5-(3-methoxybenzyloxy)-4-methoxymethyl-β-carboline-3-carboxylic acid ethyl ester], the ED50 [1] is reported as greater than 100 mg/kg and the “IC50 (in vitro)” value (benzodiazepine receptors) is reported as 0.5 ng/mL (≈ 1.19 nM).
`CCOC(=O)c1ncc2[nH]c3cccc(OCc4cccc(Cl)c4)c3c2c1COC` [Substituent 3-chloro, 5-(3-chlorobenzyloxy)-4-methoxymethyl-β-carboline-3-carboxylic acid ethyl ester] gave an ED50 [3] of 0.08 mg/kg, an ED50 [1] of 0.9 mg/kg and an ED50 [2] of 0.3 mg/kg. The “IC50 (in vitro)” value (benzodiazepine receptors) was 1.4 ng/mL (≈ 3.3 nM).
In the case of `CCOC(=O)c1ncc2[nH]c3cccc(OCc4cccc(C(F)(F)F)c4)c3c2c1COC` [3-trifluoromethyl, 5-(3-trifluoromethylbenzyloxy)-4-methoxymethyl-β-carboline-3-carboxylic acid ethyl ester], the ED50 [1] is reported as 12 mg/kg and the “IC50 (in vitro)” value (benzodiazepine receptors) is reported as 1.4 ng/mL (≈ 3.05 nM).
With `CCOC(=O)c1ncc2[nH]c3cccc(OCc4cccc(F)c4)c3c2c1COC` [Substituent 3-fluoro, 5-(3-fluorobenzyloxy)-4-methoxymethyl-β-carboline-3-carboxylic acid ethyl ester] the ED50 [3] was 0.05 mg/kg, the ED50 [1] was 12 mg/kg and the ED50 [2] was 0.3 mg/kg. The “IC50 (in vitro)” value (benzodiazepine receptors) was 0.3 ng/mL (≈ 0.735 nM).
Molecule `CCOC(=O)c1ncc2[nH]c3cccc(OC(C)c4ccccc4)c3c2c1COC` (stereo not drawn) [α-methyl] has an ED50 [3] of 0.01 mg/kg, an ED50 [1] of 3 mg/kg and an ED50 [2] of 0.1 mg/kg. For the same molecule, the “IC50 (in vitro)” value (benzodiazepine receptors) was 1.1 ng/mL (≈ 2.72 nM).
For `CCOC(=O)c1ncc2[nH]c3cccc(OCCCc4ccccc4)c3c2c1COC`, the ED50 [1] was 30 mg/kg, the ED50 [2] was 5.5 mg/kg and the “IC50 (in vitro)” value (benzodiazepine receptors) was 1.9 ng/mL (≈ 4.54 nM).
In the case of `CCOC(=O)c1ncc2[nH]c3cccc(OCc4ccccc4F)c3c2c1COC` [Substituent 2-fluoro, 5-(2-fluorobenzyloxy)-4-methoxymethyl-β-carboline-3-carboxylic acid ethyl ester], the ED50 [3] is reported as 0.05 mg/kg, the ED50 [1] is reported as 13 mg/kg and the ED50 [2] is reported as 0.4 mg/kg. For the same molecule, the “IC50 (in vitro)” value (benzodiazepine receptors) was 0.3 ng/mL (≈ 0.735 nM).
In the case of `CCOC(=O)c1ncc2[nH]c3cccc(OCc4ccc(C)c(C)c4)c3c2c1COC` [3,4-dimethyl, 5-(3,4-dimethylbenzyloxy)-4-methoxymethyl-β-carboline-3-carboxylic acid ethyl ester], the ED50 [1] is reported as 30 mg/kg and the “IC50 (in vitro)” value (benzodiazepine receptors) is reported as 1.7 ng/mL (≈ 4.06 nM).
In the case of `CCOC(=O)c1ncc2[nH]c3cccc(OCc4ccc(C)cc4)c3c2c1COC` [Substituent 4-methyl, 5-(4-methylbenzyloxy)-4-methoxymethyl-β-carboline-3-carboxylic acid ethyl ester], the ED50 [1] is reported as 30 mg/kg and the “IC50 (in vitro)” value (benzodiazepine receptors) is reported as 0.9 ng/mL (≈ 2.23 nM).
For `CCOC(=O)c1ncc2[nH]c3cccc(OCc4ccc(Cl)cc4)c3c2c1COC` [Substituent 4-chloro, 5-(4-chlorobenzyloxy)-4-methoxymethyl-β-carboline-3-carboxylic acid ethyl ester], the ED50 [1] was greater than 30 mg/kg and the “IC50 (in vitro)” value (benzodiazepine receptors) was 0.9 ng/mL (≈ 2.12 nM).
With `CCOC(=O)c1ncc2[nH]c3cccc(OCc4ccc(F)cc4)c3c2c1COC` [Substituent 4-fluoro, 5-(4-fluorobenzyloxy)-4-methoxymethyl-β-carboline-3-carboxylic acid ethyl ester] the ED50 [3] was 0.2 mg/kg, the ED50 [1] was 30 mg/kg and the ED50 [2] was 0.1 mg/kg. For the same molecule, the “IC50 (in vitro)” value (benzodiazepine receptors) was 0.4 ng/mL (≈ 0.979 nM).
For `CCOC(=O)c1ncc2[nH]c3cccc(OCc4cccc(Br)c4)c3c2c1COC` [Substituent 3-bromo, 5-(3-bromobenzyloxy)-4-methoxymethyl-β-carboline-3-carboxylic acid ethyl ester], the ED50 [1] was 6 mg/kg and the “IC50 (in vitro)” value (benzodiazepine receptors) was 0.8 ng/mL (≈ 1.7 nM).
In the case of `CCOC(=O)c1ncc2[nH]c3cccc(OC(C)c4cccc(Cl)c4)c3c2c1COC` (stereo not drawn) [α-methyl, 3-chloro, 5-[1-(3-chlorophenyl)ethoxy]-4-methoxymethyl-β-carboline-3-carboxylic acid ethyl ester], the ED50 [1] is reported as 2 mg/kg and the “IC50 (in vitro)” value (benzodiazepine receptors) is reported as 4.3 ng/mL (≈ 9.8 nM).
With `CCOC(=O)c1ncc2[nH]c3cccc(OCc4ccccc4)c3c2c1COC` the ED50 [3] was 0.5 mg/kg, the ED50 [1] was 15 mg/kg and the ED50 [2] was 0.6 mg/kg. For the same molecule, the “IC50 (in vitro)” value (benzodiazepine receptors) was 2 ng/mL (≈ 5.12 nM).
In the case of `CCOC(=O)c1ncc2[nH]c3cccc(OCCc4ccccc4)c3c2c1COC`, the ED50 [1] is reported as 40 mg/kg and the “IC50 (in vitro)” value (benzodiazepine receptors) is reported as 0.8 ng/mL (≈ 1.98 nM).
